Reference: patent US9340590B2 (priority 2011, dated 2016)
Where two headings read alike, the source gives them in different places. Positions of bridges follow the written chain, without caps; N, C: chain ends. Non-standard residues stand in square brackets, D forms with d. Residues, ends and D or L forms follow the SMILES beside them. Lys(Me2) = CN(C)CCCC[C@H](N)C(=O)O

Legend:
Test in all cases: cell-based
hNav1.5 = hNav1.5 (Homo sapiens, UniProt Q14524)
hNav1.7 [1] = molecular target: T1, hNav1.7 (Homo sapiens, UniProt Q15858)
T1 sequence (Q15858 whole entry, looked up): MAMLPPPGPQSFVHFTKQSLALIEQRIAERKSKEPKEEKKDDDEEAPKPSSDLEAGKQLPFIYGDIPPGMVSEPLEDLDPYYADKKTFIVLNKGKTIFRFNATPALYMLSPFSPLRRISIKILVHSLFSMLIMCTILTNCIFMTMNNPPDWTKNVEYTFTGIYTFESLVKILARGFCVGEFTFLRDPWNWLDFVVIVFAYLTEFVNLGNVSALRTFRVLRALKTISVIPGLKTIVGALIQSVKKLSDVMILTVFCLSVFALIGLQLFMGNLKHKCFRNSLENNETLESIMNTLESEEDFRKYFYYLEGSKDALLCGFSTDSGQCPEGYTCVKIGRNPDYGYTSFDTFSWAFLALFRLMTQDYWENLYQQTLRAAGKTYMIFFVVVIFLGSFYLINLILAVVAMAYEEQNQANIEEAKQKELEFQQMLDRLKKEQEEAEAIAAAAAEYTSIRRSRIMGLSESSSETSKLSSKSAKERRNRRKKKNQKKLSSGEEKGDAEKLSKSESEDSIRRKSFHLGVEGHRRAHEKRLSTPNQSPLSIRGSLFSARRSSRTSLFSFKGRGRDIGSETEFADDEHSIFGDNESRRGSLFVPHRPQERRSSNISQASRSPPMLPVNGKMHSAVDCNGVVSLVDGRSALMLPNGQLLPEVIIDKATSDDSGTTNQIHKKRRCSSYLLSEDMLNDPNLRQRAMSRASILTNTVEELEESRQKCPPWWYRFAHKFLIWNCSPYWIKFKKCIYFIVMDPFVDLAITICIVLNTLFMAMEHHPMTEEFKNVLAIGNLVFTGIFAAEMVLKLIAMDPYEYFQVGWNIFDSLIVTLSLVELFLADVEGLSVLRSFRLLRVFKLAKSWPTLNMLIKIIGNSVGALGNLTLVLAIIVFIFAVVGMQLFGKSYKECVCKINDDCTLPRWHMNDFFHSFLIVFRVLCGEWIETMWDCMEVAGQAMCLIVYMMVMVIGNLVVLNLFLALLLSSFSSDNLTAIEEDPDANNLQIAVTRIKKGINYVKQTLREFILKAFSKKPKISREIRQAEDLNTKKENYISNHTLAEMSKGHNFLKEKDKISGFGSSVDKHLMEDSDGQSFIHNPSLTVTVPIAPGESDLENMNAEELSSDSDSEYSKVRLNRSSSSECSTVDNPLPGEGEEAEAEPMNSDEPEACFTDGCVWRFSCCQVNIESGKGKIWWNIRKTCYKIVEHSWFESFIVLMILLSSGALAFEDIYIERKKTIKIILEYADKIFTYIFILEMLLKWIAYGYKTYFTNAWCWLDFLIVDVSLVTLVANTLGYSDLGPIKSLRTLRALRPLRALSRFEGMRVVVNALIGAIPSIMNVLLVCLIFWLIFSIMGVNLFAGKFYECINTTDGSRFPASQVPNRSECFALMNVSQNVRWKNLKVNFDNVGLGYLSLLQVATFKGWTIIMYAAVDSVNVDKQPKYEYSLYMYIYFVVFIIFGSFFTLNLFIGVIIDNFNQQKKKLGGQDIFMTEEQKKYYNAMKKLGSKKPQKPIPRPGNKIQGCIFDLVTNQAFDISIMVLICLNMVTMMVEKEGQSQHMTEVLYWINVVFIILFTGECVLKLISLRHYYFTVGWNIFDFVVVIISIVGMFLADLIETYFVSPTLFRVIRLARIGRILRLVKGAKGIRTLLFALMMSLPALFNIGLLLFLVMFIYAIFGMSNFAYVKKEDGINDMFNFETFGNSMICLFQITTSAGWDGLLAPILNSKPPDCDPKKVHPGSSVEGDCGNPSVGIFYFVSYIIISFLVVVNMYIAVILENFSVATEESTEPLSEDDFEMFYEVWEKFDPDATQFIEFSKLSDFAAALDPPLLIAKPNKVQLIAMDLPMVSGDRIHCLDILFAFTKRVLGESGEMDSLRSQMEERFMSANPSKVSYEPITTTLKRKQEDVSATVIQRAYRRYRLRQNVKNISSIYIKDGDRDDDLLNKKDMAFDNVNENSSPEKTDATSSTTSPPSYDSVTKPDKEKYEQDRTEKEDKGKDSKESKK

hNav1.3 = hNav1.3 (Homo sapiens, UniProt Q9NY46); settings: IonWorks Quattro, read-out: IWQ Use Nav1.3
hNav1.7 [2] = molecular target: T1, hNav1.7; assay type: cell-based; settings: IonWorks Quattro; clamped to −110 mV, depolarized to −10 mV, 5 min after compound; n=2; read-out: IWQ Use Nav1.7

Chain of hNav1.5 (Q14524 whole entry, looked up): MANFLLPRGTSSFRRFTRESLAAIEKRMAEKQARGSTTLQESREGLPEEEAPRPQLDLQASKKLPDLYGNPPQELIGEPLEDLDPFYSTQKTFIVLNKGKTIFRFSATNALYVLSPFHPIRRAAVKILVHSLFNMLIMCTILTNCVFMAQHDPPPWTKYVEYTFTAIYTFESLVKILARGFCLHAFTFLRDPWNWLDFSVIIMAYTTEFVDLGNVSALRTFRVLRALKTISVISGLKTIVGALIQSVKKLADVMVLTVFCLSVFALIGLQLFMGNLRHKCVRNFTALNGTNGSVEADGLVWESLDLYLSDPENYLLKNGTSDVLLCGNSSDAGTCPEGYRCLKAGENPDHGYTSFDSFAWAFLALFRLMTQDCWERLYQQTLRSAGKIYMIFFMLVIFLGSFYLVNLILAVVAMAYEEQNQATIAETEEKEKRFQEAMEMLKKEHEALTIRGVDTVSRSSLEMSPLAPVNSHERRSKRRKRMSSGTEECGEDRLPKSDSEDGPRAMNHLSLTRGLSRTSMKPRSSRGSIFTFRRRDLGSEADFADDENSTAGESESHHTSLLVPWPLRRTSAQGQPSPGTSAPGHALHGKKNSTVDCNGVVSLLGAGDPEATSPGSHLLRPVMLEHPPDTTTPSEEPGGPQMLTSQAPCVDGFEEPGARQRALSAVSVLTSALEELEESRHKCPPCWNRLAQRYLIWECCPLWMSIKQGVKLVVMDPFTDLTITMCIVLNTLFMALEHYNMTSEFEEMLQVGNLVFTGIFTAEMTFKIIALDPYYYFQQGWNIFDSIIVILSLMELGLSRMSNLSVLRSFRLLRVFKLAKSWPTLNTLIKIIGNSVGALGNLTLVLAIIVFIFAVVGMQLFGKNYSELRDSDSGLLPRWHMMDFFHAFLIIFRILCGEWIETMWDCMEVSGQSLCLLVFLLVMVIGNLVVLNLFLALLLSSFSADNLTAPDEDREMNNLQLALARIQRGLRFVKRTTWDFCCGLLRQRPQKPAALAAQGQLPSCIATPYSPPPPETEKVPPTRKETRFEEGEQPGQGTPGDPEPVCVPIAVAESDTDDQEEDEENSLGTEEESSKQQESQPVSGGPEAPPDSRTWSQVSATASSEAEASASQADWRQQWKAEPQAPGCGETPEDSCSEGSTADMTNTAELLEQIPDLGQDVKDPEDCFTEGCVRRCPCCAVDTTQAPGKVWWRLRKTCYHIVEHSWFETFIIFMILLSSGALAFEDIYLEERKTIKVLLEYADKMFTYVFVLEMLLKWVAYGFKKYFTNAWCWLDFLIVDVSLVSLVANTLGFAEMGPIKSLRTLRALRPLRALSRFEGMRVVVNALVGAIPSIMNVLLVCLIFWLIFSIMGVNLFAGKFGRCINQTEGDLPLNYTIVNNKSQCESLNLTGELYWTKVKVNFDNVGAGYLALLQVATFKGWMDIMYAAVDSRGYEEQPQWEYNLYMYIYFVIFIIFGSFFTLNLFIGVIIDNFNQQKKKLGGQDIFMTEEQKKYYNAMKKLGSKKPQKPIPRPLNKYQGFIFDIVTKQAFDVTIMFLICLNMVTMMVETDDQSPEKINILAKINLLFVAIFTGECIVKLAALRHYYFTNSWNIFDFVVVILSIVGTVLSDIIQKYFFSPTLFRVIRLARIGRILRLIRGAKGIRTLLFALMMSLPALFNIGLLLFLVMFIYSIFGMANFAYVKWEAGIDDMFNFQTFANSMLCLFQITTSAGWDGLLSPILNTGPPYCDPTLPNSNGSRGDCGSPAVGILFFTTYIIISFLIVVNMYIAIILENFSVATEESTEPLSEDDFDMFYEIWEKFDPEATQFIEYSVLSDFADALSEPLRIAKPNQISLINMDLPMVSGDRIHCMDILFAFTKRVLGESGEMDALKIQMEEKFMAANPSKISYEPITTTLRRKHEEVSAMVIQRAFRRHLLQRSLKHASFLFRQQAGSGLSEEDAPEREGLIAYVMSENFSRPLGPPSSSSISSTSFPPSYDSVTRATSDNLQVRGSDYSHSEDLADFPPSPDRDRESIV

For CC[C@H](C)[C@@H]1NC(=O)CNC(=O)[C@H](CC(C)C)NC(=O)[C@@H](NC(=O)[C@@H](N)CC(=O)O)CSSC[C@@H]2NC(=O)[C@@H]3CSSC[C@@H](C(=O)N[C@@H](CCCCN)C(=O)N[C@@H](Cc4ccc(O)cc4)C(=O)N[C@H](C(=O)N[C@@H](Cc4ccccc4)C(N)=O)C(C)C)NC(=O)[C@H](Cc4c[nH]c5ccccc45)NC(=O)[C@H](CCCCN)NC(=O)[C@H](Cc4cnc[nH]4)NC(=O)[C@H]([C@@H](C)O)NC(=O)[C@H](CCCNC(=N)N)NC(=O)[C@H](CO)NC(=O)[C@H](CSSC[C@H](NC(=O)[C@H](CCCCN)NC(=O)[C@H](CCCNC(=N)N)NC(=O)[C@H](CCSC)NC1=O)C(=O)N[C@@H]([C@@H](C)CC)C(=O)N1CCC[C@H]1C(=O)N[C@@H](CC(=O)O)C(=O)N[C@@H](CC(N)=O)C(=O)N[C@@H](CC(=O)O)C(=O)N[C@@H](CCCCN)C(=O)N3)NC(=O)[C@H](C(C)C)NC(=O)[C@H](CC(C)C)NC(=O)[C@H](CC(N)=O)NC(=O)[C@@H]1CCCN1C(=O)[C@H](CCCNC(=N)N)NC2=O [SEQ ID NO: 88] (H-DCLGIMRKCIPDNDKCCRPNLVCSRTHKWCKYVF-NH2; disulfide 2-17, 9-23, 16-30), the IC50 (hNav1.5; IonWorks Quattro, clamped to −110 mV, depolarized to −10 mV, 5 min after compound, n=2, read-out: IWQ Use Nav1.5) was 6.65 µM, the IC50 (hNav1.7 [1]; Nav1.7 Use IC50) was 2 nM and the IC50 (hNav1.3; clamped to −110 mV, depolarized to −10 mV, 5 min after compound, n=2) was 620 nM. It also gave an IC50 (hNav1.7 [2]) of 360 nM.

In the case of CC[C@H](C)[C@@H]1NC(=O)[C@@H]2CSSC[C@@H]3NC(=O)[C@H](C(C)C)NC(=O)[C@H](CC(C)C)NC(=O)[C@H](CC(N)=O)NC(=O)[C@@H]4CCCN4C(=O)[C@H](CCCNC(=N)N)NC(=O)[C@H](CSSC[C@H](NC(=O)[C@@H](N)CC(=O)O)C(=O)N[C@@H](CC(C)C)C(=O)NCC(=O)N[C@@H](Cc4ccccc4)C(=O)N[C@@H](CCSC)C(=O)N[C@@H](CCCNC(=N)N)C(=O)N[C@@H](CCCCN)C(=O)N2)NC(=O)[C@H](CSSC[C@@H](C(=O)N[C@@H](CCCCN)C(=O)N[C@@H](Cc2ccc(O)cc2)C(=O)N[C@H](C(=O)N[C@@H](Cc2ccccc2)C(N)=O)C(C)C)NC(=O)[C@H](Cc2c[nH]c4ccccc24)NC(=O)[C@H](CCC(=O)O)NC(=O)[C@H](Cc2cnc[nH]2)NC(=O)[C@H]([C@@H](C)O)NC(=O)[C@H](CCCNC(=N)N)NC(=O)[C@H](CO)NC3=O)NC(=O)[C@H](CCCCN)NC(=O)[C@H](CC(=O)O)NC(=O)[C@H](CC(N)=O)NC(=O)[C@H](CC(=O)O)NC(=O)[C@@H]2CCCN2C1=O [SEQ ID NO: 153, [Glu28]GpTx-1(1-34)] (H-DCLGFMRKCIPDNDKCCRPNLVCSRTHEWCKYVF-NH2; disulfide 2-17, 9-23, 16-30), the IC50 (hNav1.5; IWQ Use Nav1.5 (μM)) is reported as 14.1 µM, the IC50 (hNav1.7 [1]; Nav1.7 Use IC50) is reported as 50.1 nM and the IC50 (hNav1.3; Table 23, use, […]) is reported as 800 nM.

CC[C@H](C)[C@@H]1NC(=O)[C@@H]2CSSC[C@@H]3NC(=O)[C@H](C(C)C)NC(=O)[C@H](CC(C)C)NC(=O)[C@H](CC(N)=O)NC(=O)[C@@H]4CCCN4C(=O)[C@H](CCCCN(C)C)NC(=O)[C@H](CSSC[C@H](NC(=O)[C@@H](N)CC(=O)O)C(=O)N[C@@H](CC(C)C)C(=O)NCC(=O)N[C@@H](Cc4ccccc4)C(=O)N[C@@H](CCSC)C(=O)N[C@@H](CCCNC(=N)N)C(=O)N[C@@H](CCCCN)C(=O)N2)NC(=O)[C@H](CSSC[C@@H](C(=O)N[C@@H](CCCCN)C(=O)N[C@@H](Cc2ccc(O)cc2)C(=O)N[C@H](C(=O)N[C@@H](Cc2ccccc2)C(N)=O)C(C)C)NC(=O)[C@H](Cc2c[nH]c4ccccc24)NC(=O)[C@H](CCCCN)NC(=O)[C@H](Cc2c[nH]cn2)NC(=O)[C@H]([C@@H](C)O)NC(=O)[C@H](CCCNC(=N)N)NC(=O)[C@H](CO)NC3=O)NC(=O)[C@H](CCCCN)NC(=O)[C@H](CC(=O)O)NC(=O)[C@H](CC(N)=O)NC(=O)[C@H](CC(=O)O)NC(=O)[C@@H]2CCCN2C1=O [[K(Me2)18]GpTx-1(1-34)] (H-DCLGFMRKCIPDNDKCC[Lys(Me2)]PNLVCSRTHKWCKYVF-NH2; disulfide 2-17, 9-23, 16-30) showed an IC50 (hNav1.7 [1]; read-out: Nav1.7 Use IC50) of 5 nM.

CC[C@H](C)[C@@H]1NC(=O)[C@@H]2CSSC[C@@H]3NC(=O)[C@H](C(C)C)NC(=O)[C@H](CC(C)C)NC(=O)[C@H](CC(N)=O)NC(=O)[C@@H]4CCCN4C(=O)[C@H](CCCNC(=N)N)NC(=O)[C@H](CSSC[C@H](NC(=O)[C@@H](N)CC(=O)O)C(=O)N[C@@H](CC(C)C)C(=O)NCC(=O)N(C)[C@@H](CC(C)C)C(=O)N[C@@H](CCSC)C(=O)N[C@@H](CCCNC(=N)N)C(=O)N[C@@H](CCCCN)C(=O)N2)NC(=O)[C@H](CSSC[C@@H](C(=O)N[C@@H](CCCCN)C(=O)N[C@@H](Cc2ccc(O)cc2)C(=O)N[C@H](C(=O)N[C@@H](Cc2ccccc2)C(N)=O)C(C)C)NC(=O)[C@H](Cc2c[nH]c4ccccc24)NC(=O)[C@H](CCCCN)NC(=O)[C@H](Cc2cnc[nH]2)NC(=O)[C@H]([C@@H](C)O)NC(=O)[C@H](CCCNC(=N)N)NC(=O)[C@H](CO)NC3=O)NC(=O)[C@H](CCCCN)NC(=O)[C@H](CC(=O)O)NC(=O)[C@H](CC(N)=O)NC(=O)[C@H](CC(=O)O)NC(=O)[C@@H]2CCCN2C1=O [[NMeLeu5]GpTx-1(1-34)] gave an IC50 (hNav1.7 [1]; Nav1.7 Use IC50) of 26 nM.

With CCC[C@@H]1NC(=O)CNC(=O)[C@H](CC(C)C)NC(=O)[C@@H](NC(=O)[C@@H](N)CC(=O)O)CSSC[C@@H]2NC(=O)[C@@H]3CSSC[C@@H](C(=O)N[C@@H](CCCCN)C(=O)N[C@@H](Cc4ccc(O)cc4)C(=O)N[C@H](C(=O)N[C@@H](Cc4ccccc4)C(N)=O)C(C)C)NC(=O)[C@H](Cc4c[nH]c5ccccc45)NC(=O)[C@H](CCCCN)NC(=O)[C@H](Cc4cnc[nH]4)NC(=O)[C@H]([C@@H](C)O)NC(=O)[C@H](CCCNC(=N)N)NC(=O)[C@H](CO)NC(=O)[C@H](CSSC[C@H](NC(=O)[C@H](CCCCN)NC(=O)[C@H](CCCNC(=N)N)NC(=O)[C@H](CCSC)NC1=O)C(=O)N[C@@H]([C@@H](C)CC)C(=O)N1CCC[C@H]1C(=O)N[C@@H](CC(=O)O)C(=O)N[C@@H](CC(N)=O)C(=O)N[C@@H](CC(=O)O)C(=O)N[C@@H](CCCCN)C(=O)N3)NC(=O)[C@H](C(C)C)NC(=O)[C@H](CC(C)C)NC(=O)[C@H](CC(N)=O)NC(=O)[C@@H]1CCCN1C(=O)[C@H](CCCNC(=N)N)NC2=O [[Nva5]GpTx-1(1-34)] the IC50 (hNav1.7 [1]; Nav1.7 Use IC50) was 38 nM.

Work on CC[C@H](C)[C@@H]1NC(=O)[C@@H]2CSSC[C@@H]3NC(=O)[C@H](C(C)C)NC(=O)[C@H](CC(C)C)NC(=O)[C@H](CC(N)=O)NC(=O)[C@@H]4CCCN4C(=O)[C@H](CCCNC(=N)N)NC(=O)[C@H](CSSC[C@H](NC(=O)[C@@H](N)CC(=O)O)C(=O)N[C@@H](CC(C)C)C(=O)NCC(=O)N[C@@H](C(C)(C)C)C(=O)N[C@@H](CCSC)C(=O)N[C@@H](CCCNC(=N)N)C(=O)N[C@@H](CCCCN)C(=O)N2)NC(=O)[C@H](CSSC[C@@H](C(=O)N[C@@H](CCCCN)C(=O)N[C@@H](Cc2ccc(O)cc2)C(=O)N[C@H](C(=O)N[C@@H](Cc2ccccc2)C(N)=O)C(C)C)NC(=O)[C@H](Cc2c[nH]c4ccccc24)NC(=O)[C@H](CCCCN)NC(=O)[C@H](Cc2cnc[nH]2)NC(=O)[C@H]([C@@H](C)O)NC(=O)[C@H](CCCNC(=N)N)NC(=O)[C@H](CO)NC3=O)NC(=O)[C@H](CCCCN)NC(=O)[C@H](CC(=O)O)NC(=O)[C@H](CC(N)=O)NC(=O)[C@H](CC(=O)O)NC(=O)[C@@H]2CCCN2C1=O [[Tle5]GpTx-1(1-34)] yielded an IC50 (hNav1.7 [1]; Nav1.7 Use IC50) of 23 nM.
